US20130165368A1, “ANTIMICROBIAL COMPOUNDS” (priority 2010, published 2013)
Values after ≈ are worked out from the molar mass of the structure shown. Like-named read-outs stand apart in the source and are kept apart here.

Tests used:
Format in all cases: cell-based
[1] = system: Pseudomonas aeruginosa; test: MIC agar dilution, micro-organism 7 (10662); conditions: Pseudomonas aeruginosa 10662
Description: Throughout the period of testing the microbial strains were subcultured and incubated for 18-20 hours at 37° C. on a weekly basis. Horse blood agar plates were used to sustain the micro-organisms both prior to and throughout testing. The alkoxylated alkanols listed in Table II below were obtained (these are obtainable from Sigma-Aldrich Company Ltd, Dorset, England), each having a GC purity of at least 97%.
(§1) Molar equivalent concentrations were used to allow comparison between compounds of differing molecular mass. Due to weighing difficulties, any compound in solid form was melted in a water bath prior to dilution. To make ten-times strength concentrations, which takes into account agar dilution, 0.0352 mmol of each compound was weighed into plastic universal bottles and 4 mL of sterile distilled water (SDW) was added. To produce a homogenous emulsion the universals were vortexed; once achieved the emulsions were serial diluted by adding 2 mL to 2 mL of SDW.
Myristyl alcohol and lauryl alcohol were re-weighed and dissolved in 25 μL of the polar solvent 1-methyl-2-pyrrolidone (M6762; Sigma-Aldrich) in sterile glass universals due to an inability to achieve an even suspension. To maintain an even emulsion in the presence of SDW 37.5 μL of the non-ionic detergent Tween 20 (P1379, Sigma-Aldrich) was also added. 3.9375 mL of SDW was added to these, to create a 4 mL volume; they were vortexed and diluted as before.
(§2) For every 100 mL of Isosensitest agar (IST) (CM0471; Oxoid, Basingstoke, England), 3.1 g of the IST powder was added to 100 mL SDW (as per manufacturer's instructions) and sterilised for 15 minutes at 121° C. Once sterilised, the molten agar was cooled to 50° C. in a water-bath. Subsequently 4.8 g of CCEY powder (BC2160; Bioconnections, Wetherby, England), also known as Brazier's medium, was added to 100 mL SDW for every 100 mL of agar needed. This was then sterilised for 15 minutes at 121° C. Once sterilised the molten agar was cooled to 50° C. in a water-bath and 4 mL of egg-yolk emulsion (S2073; TCS Biosciences Ltd, Buckingham, United Kingdom) and 1 mL of lysed defibrinated horse blood (HB035; TCS Biosciences Ltd, Buckingham, United Kingdom) were also added for every 100 mL needed. Horse blood lysis is achieved by dilution to half concentration with SDW; when fully lysed the mixture will turn dark red in colour.
(§3) 18 mL agar was added to each universal and then poured into sterile Petri dishes. This step creates a 1/10 dilution resulting in agar plates of the required strength. Control plates for each set of strains were created by adding 18 mL of agar to 2 mL of SDW.
(§4) Suspensions of each bacterial species were prepared with a density equal to that of a 0.5 McFarland standard using a densitometer. All suspensions were made using sterile distilled water and fresh 18-20 hour cultures. As a 0.5 McFarland standard contains 1.5×10^8 CFU/mL and the multipoint inoculators applies 1 μL spots of liquid, each bacterial suspension was diluted 1/15 (20 μL suspension to 280 μL sterile distilled water).
(§5) Bacterial suspensions were prepared from fresh 18-24 hour cultures as previously described. 1 μL of each strain was inoculated onto all 100 agar plates containing a different chemical concentration and the 2 control plates. This was done using a multipoint inoculator which inoculates 20 strains per plate. All plates were incubated for 22 hours at 37° C. in aerobic conditions.
(§6) Each plate was examined for bacterial growth after 22 and 48 hours, with each being incubated in between examinations. A positive result was recorded as growth of ≧10 colonies. A negative result was recorded as growth of <10 colonies as this is equivalent to 99.9% inhibition. The lowest concentration of chemical that inhibited growth was recorded as the MIC. The results are recorded in Table IV below, where the numbers are quoted in mmol/L.
Further experiments have also been conducted to determine the MIC of a number of other compositions as follows. […]

[2] = system: MRSA FRA 95035; test: MIC agar dilution, MRSA strain 37; conditions: Staphylococcus aureus
Description: as §1, §2, §3, §4, §5, §6
(§7) Given the positive performance of the ethoxylates of lauryl alcohol in reducing the MIC for a number of the micro-organisms tested, further MIC testing of Laureth-1 [C12E1] through to Laureth-8 [C12E8] was conducted on each of the following: • 10 strains of vancomycin-resistant enterococci (VRE)—listed in Table V below; and • 20 strains of methicillin-resistant Staphylococcus aureus (MRSA)—listed in Table VI.
(§8) The alkanol, alkanol derivatives, agar plates, and inocula were all prepared in the same way as described above.
(§9) The plates were examined in the same manner as described above and the results are recorded in Table VII below, where the numbers are quoted in mmol/L.

[3] = system: MRSA EMRSA 15 21698/98; test: MIC agar dilution, MRSA strain 41; conditions: Staphylococcus aureus
Description: as §1, §2, §3, §4, §5, §6, §7, §8, §9

[4] = system: vancomycin-resistant enterococci (VRE); test: MIC agar dilution, summary over 10 VRE strains; conditions: Enterococcus; most, if not all, of the VRE samples
Description: as §7, §8, §9

[5] = system: MRSA NCTC 11939; test: MIC agar dilution, MRSA strain 50; conditions: Staphylococcus aureus, MRSA strain 50 NCTC 11939
Description: as §1, §2, §3, §4, §5, §6, §7, §8, §9

[6] = system: Enterococcus faecalis (VRE) MB 1969; test: MIC agar dilution, VRE strain 27
Description: as §1, §2, §3, §4, §5, §6, §7, §8, §9

[7] = system: MRSA FRA 920; test: MIC agar dilution, MRSA strain 38; conditions: Staphylococcus aureus
Description: as §1, §2, §3, §4, §5, §6, §7, §8, §9

[8] = system: MRSA EMRSA 15 21268/98; test: MIC agar dilution, MRSA strain 40; conditions: Staphylococcus aureus
Description: as §1, §2, §3, §4, §5, §6, §7, §8, §9

[9] = system: Staphylococcus aureus; test: Additional antibacterial data, MIC (Table XII), Gram positive control; conditions: Staphylococcus aureus 470273M (control); inoculum 10000 cfu/spot; 24 hrs at 37° C.
Description: (§10) Using the protocols outlined in the example above, the inventors further investigated the antibacterial effects of representative alkoxylated alkanol compounds. The inoculum was 10000 cfu/spot; inclubation was for 24 hrs at 37° C.

[10] = system: Staphylococcus aureus(MRSA); test: as above; conditions: Staphylococcus aureus(MRSA) 380022E (control); inoculum 10000 cfu/spot; 24 hrs at 37° C.
Description: as §10

[11] = system: MRSA FIN 54511 (E6); test: MIC agar dilution, MRSA strain 32; conditions: Staphylococcus aureus
Description: as §1, §2, §3, §4, §5, §6, §7, §8, §9

[12] = system: MRSA BEL 97597; test: MIC agar dilution, MRSA strain 33; conditions: Staphylococcus aureus
Description: as §1, §2, §3, §4, §5, §6, §7, §8, §9

| Compound | MIC ([2]; 22 hrs) | MIC ([2]; 48 hrs) | MIC ([3]; 22 hrs) | MIC ([3]; 48 hrs) | MIC [4] | MIC ([5]; 22 hrs) | MIC ([5]; 48 hrs) | MIC ([6]; 22 hrs) | MIC ([6]; 48 hrs) | MIC ([7]; 22 hrs) | MIC ([7]; 48 hrs) | MIC ([8]; 22 hrs) | MIC ([8]; 48 hrs) | MIC ([11]; 22 hrs) | MIC ([11]; 48 hrs) | MIC ([12]; 22 hrs) | MIC ([12]; 48 hrs) | further results |
| --- | --- | --- | --- | --- | --- | --- | --- | --- | --- | --- | --- | --- | --- | --- | --- | --- | --- | --- |
| CCCCCCCCCCCCCCCCO [C0, 1-Hexadecanol, reference compound] |  |  |  |  |  |  |  |  |  |  |  |  |  |  |  |  |  | MIC ([1]; 22 hrs, read-out: MIC): > 880 µM; MIC ([1]; 48 hrs, read-out: MIC): > 880 µM |
| CCCCCCCCCCCCCOCCOCCOCCOCCOCCOCCO [C13E6, polyoxyethylene (6) tridecyl alcohol] |  |  |  |  |  |  |  |  |  |  |  |  |  |  |  |  |  | MIC ([1]; 22 hrs): >880 µM; MIC ([1]; 48 hrs): >880 µM |
| CCCCCCCCCCCCOCCO [L1, Ethylene Glycol Monododecyl Ether] | 220 µM (≈ 50.7 µg/mL) | 220 µM (≈ 50.7 µg/mL) | 220 µM (≈ 50.7 µg/mL) | 220 µM (≈ 50.7 µg/mL) | ≤ 440 µM | 220 µM (≈ 50.7 µg/mL) | 220 µM (≈ 50.7 µg/mL) | 220 µM (≈ 50.7 µg/mL) | 220 µM (≈ 50.7 µg/mL) | 220 µM (≈ 50.7 µg/mL) | 220 µM (≈ 50.7 µg/mL) | 220 µM (≈ 50.7 µg/mL) | 220 µM (≈ 50.7 µg/mL) | 220 µM (≈ 50.7 µg/mL) | 220 µM (≈ 50.7 µg/mL) | 220 µM (≈ 50.7 µg/mL) | 220 µM (≈ 50.7 µg/mL) | MIC (%) volume/volume [9]: 0.25 % volume/volume; MIC (%) volume/volume [10]: 0.25 % volume/volume |
| CCCCCCCCCCCCOCCOCCO [L2, Diethylene Glycol Monododecyl Ether] | 220 µM (≈ 60.4 µg/mL) | 220 µM (≈ 60.4 µg/mL) | 110 µM (≈ 30.2 µg/mL) | 110 µM (≈ 30.2 µg/mL) | ≤ 440 µM | 55 µM (≈ 15.1 µg/mL) | 110 µM (≈ 30.2 µg/mL) | 220 µM (≈ 60.4 µg/mL) | 220 µM (≈ 60.4 µg/mL) | 110 µM (≈ 30.2 µg/mL) | 110 µM (≈ 30.2 µg/mL) | 110 µM (≈ 30.2 µg/mL) | 110 µM (≈ 30.2 µg/mL) | 110 µM (≈ 30.2 µg/mL) | 110 µM (≈ 30.2 µg/mL) | 110 µM (≈ 30.2 µg/mL) | 110 µM (≈ 30.2 µg/mL) |  |
| CCCCCCCCCCCCOCCOCCOCCO [L3, Triethylene Glycol Monododecyl Ether] | 55 µM (≈ 17.5 µg/mL) | 55 µM (≈ 17.5 µg/mL) | 110 µM (≈ 35 µg/mL) | 110 µM (≈ 35 µg/mL) | ≤ 440 µM | 55 µM (≈ 17.5 µg/mL) | 55 µM (≈ 17.5 µg/mL) | 440 µM (≈ 140 µg/mL) | 440 µM (≈ 140 µg/mL) | 55 µM (≈ 17.5 µg/mL) | 55 µM (≈ 17.5 µg/mL) | 110 µM (≈ 35 µg/mL) | 110 µM (≈ 35 µg/mL) | 220 µM (≈ 70.1 µg/mL) | 220 µM (≈ 70.1 µg/mL) | 55 µM (≈ 17.5 µg/mL) | 55 µM (≈ 17.5 µg/mL) |  |
